Experiments:
[1] = target: T1, PEC1 (Homo sapiens, UniProt O75521); assay: competitive isoTOP-ABPP, MDA-MB-231 soluble proteome; type: binding; conditions: 100 μM LDE, 60 min; peptide WLSDEC*TNAVVNFLSR
T1 construct: directly in native proteomes; endogenous in cells; host or cells: MDA-MB-231
T1 sequence (O75521 39-394): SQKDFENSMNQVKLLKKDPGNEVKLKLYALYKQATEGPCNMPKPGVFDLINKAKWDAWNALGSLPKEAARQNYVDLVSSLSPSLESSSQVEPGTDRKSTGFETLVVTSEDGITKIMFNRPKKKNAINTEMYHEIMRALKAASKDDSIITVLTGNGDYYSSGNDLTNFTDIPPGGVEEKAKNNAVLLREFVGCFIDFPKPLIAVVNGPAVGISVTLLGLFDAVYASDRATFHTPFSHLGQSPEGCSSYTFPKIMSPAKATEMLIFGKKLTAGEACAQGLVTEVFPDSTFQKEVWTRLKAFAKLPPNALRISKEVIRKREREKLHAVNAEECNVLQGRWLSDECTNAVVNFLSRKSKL
Method: (§1) Here, we envisioned that isoTOP-ABPP could be advanced to discover and quantify reactions between cysteines in proteomes and any electrophilic compound. In this advanced, ‘competitive’ version of isoTOP-ABPP (FIG. 1a), a proteome is treated with an electrophile (experimental sample) or DMSO (control sample). Both proteomic samples are then labeled with the IA probe and conjugated by CuAAC to light and heavy azide-biotin tags, respectively. The light and heavy samples are then mixed and subjected to our described isoTOP-ABPP protocol for enrichment, identification, and quantification of IA-labeled cysteines^30. Electrophile-modified cysteines are quantified by measuring the MS1 chromatographic peak ratios (R values) for heavy (DMSO-treated) over light (electrophile-treated) samples, with higher R values reflecting greater sensitivity to the electrophile. In this format, competitive isoTOP-ABPP can assay electrophiles against 1000+ cysteines in parallel directly in native proteomes without requiring any chemical modification to the electrophiles themselves.
(§2) Competitive isoTOP-ABPP experiments were performed in quadruplicate using the soluble proteome of the human breast cancer cell line MDA-MB-231 cell line. Proteomes were treated with 100 μM HNE, 15d-PGJ2, or 2-HD, for 60 minutes, followed by the IA-probe (100 μM, 60 min) A total of ˜1400 cysteine reactivities were quantified across the aggregate data set, with at least 900 cysteine reactivities quantified for each LDE (FIG. 2a) more than 750 of which were quantified for all the three electrophiles.
(§3) HNE was purchased from EMD biosciences, 15d-PGJ2 was purchased from Cayman Chemicals and 2-HD was purchased from Santa Cruz Biotechnology. Proteome samples were diluted to a 4 mg protein/mL solution in PBS. For each profiling experiment, one aliquot of the proteome sample (0.5 mL) was treated with 100 μM of LDE using 5 μL of a 10 mM stock and the other aliquot was treated with 5 μL of either ethanol (for HNE and 15d-PGJ2) or DMSO (for 2-HD) as control. For the concentration-dependent profiling experiments using HNE, aliquots of the proteomes (0.5 mL each) were treated with 5, 10, 50, 100 and 500 μM of HNE using 5 μL of 0.5, 1.0, 5, 10 and 50 mM of stock solution, respectively. After 60 minutes of treatment at room temperature, both the LDE-treated and control aliquots were passed through a NAP-5 Sephadex column (GE healthcare) to remove any unreacted LDE. The volume of each aliquot was increased to 1 mL with the concentration at 2 mg/mL after this step.
(§4) Each of the control and LDE-treated proteome samples (˜2 mg protein/mL in 1 mL volume) was treated with 100 μM of IA-probe using 10 μL of a 10 mM stock in DMSO. The labeling reactions were incubated at room temperature for 1 hour. Click chemistry (acetylene-azide cycloaddition) was performed by the addition of 100 μM of either the Heavy-TEV-Tag (for the control sample) or Light-TEV-Tag (for the LDE-treated sample) (20 μL of a 5 mM stock), 1 mM TCEP (fresh 50× stock in water), 100 μM ligand (17× stock in DMSO:t-Butanol 1:4) and 1 mM CuSO4 (50× stock in water). Samples were allowed to react at room temperature for 1 hour. After the click chemistry step, the light and heavy-labeled samples were mixed together and centrifuged (5900×g, 4 min, 4° C.) to pellet the precipitated proteins.
(§5) The pellets were washed twice in cold MeOH, after which the pellet was solubilized in PBS containing 1.2% SDS via sonication and heating (5 min, 80° C.). Samples were subjected to streptavidin enrichment of probe-labeled proteins, sequential on-bead trypsin and TEV digestion, and liquid chromatography-mass spectrometry (LC-MS) analysis according to the published isoTOP-ABPP protocol^30.
(§6) IA-probe labeled peptides were identified by SEQUEST2 and DTASelect3, and the quantification of heavy/light ratios (isoTOP-ABPP ratios, R) was performed by an in-house software (CIMAGE) as previously described. […]

[2] = target: T2, CKAP4 (Homo sapiens, UniProt Q07065); assay: as above; type: binding; conditions: 100 μM LDE, 60 min; peptide SSSSSSASAAAAAAAASSSASC*SR
T2 construct: directly in native proteomes; endogenous in cells; host or cells: MDA-MB-231
T2 sequence (Q07065 1-602): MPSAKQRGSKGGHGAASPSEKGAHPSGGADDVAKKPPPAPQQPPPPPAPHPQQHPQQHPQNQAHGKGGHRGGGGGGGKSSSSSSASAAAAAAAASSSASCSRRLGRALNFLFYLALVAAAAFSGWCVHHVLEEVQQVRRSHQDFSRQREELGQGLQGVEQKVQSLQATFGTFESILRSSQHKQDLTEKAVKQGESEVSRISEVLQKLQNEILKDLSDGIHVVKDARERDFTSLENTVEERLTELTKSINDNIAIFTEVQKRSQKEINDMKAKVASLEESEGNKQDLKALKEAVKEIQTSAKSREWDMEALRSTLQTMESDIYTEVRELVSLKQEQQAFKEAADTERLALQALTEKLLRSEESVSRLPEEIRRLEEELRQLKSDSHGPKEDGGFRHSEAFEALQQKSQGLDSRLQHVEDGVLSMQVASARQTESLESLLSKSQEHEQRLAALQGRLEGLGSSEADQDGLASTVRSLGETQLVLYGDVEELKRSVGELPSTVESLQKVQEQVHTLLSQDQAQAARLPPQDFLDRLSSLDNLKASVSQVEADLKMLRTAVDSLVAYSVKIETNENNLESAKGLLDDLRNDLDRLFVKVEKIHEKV
Method: as §1, §2, §3, §4, §5, §6

Row | Compound | R value (isoTOP-ABPP ratio heavy/light) for IA-labeled cysteine of PEC1 [1] | R value (isoTOP-ABPP ratio heavy/light) for IA-labeled cysteine of CKAP4 [2]
1 | CCCCCCCCCCCCC/C=C/C=O [2-HD, 2-trans-hexadecenal] | 1.06 | 1.08
2 | CCCCCC(O)/C=C/C=O (stereo not drawn) [4-HNE, 4-Hydroxynonenal] | 1.86 | 7.73
3 | CCCCC/C=C/C=C1/C(=O)C=C[C@@H]1C/C=C\CCCC(=O)O [PGJ2, 15-deoxy-Δ12,14-prostaglandin J2] | 8.23 | 3.33
